Some test systems named below: SR leukemia; SW-620 colon; HCT-15 colon; SNB-75 CNS; MDA-MB-231 breast; SNB-19 CNS; OVCAR-8 ovarian; OVCAR-5 ovarian; NCI-H226 lung; OVCAR-3 ovarian.
What all share (assay): DTP human tumour cell line panel, 48 h

Several values for one entry are separate records, joined by “and”; a condition that tells them apart may be missing. Equal values may be shown once.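 These data come from cells grown in 96-well plates and exposed to compound for 48 hours at five concentrations. GI50 = concentration required for 50% inhibition of growth. TGI: concentration producing complete growth inhibition.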

In the case of `O=C(Nc1ccccc1)Nc1ccc2cc3ccc(NC(=O)Nc4ccccc4)cc3nc2c1`, the GI50 (as a rule, the concentration that inhibits growth by half) in the test on SR leukemia is 0.287 µM; in the test with SW-620 colon, 0.331 µM; in the test with HCT-15 colon, 37.2 µM; in the test on SNB-75 CNS, 1.97 µM; with MDA-MB-231 breast it was 1.4 µM; in the test with SNB-19 CNS, 1.58 µM. Besides, the GI50 in the test with OVCAR-8 ovarian is 1.15 µM; with OVCAR-5 ovarian, 3.1 µM; in the test on NCI-H226 lung, 1.71 µM; in the test on OVCAR-3 ovarian, 1.1 µM. Further, the TGI (in general, the concentration giving total growth inhibition) with SR leukemia is 0.734 µM; with SW-620 colon, 1.19 µM; with HCT-15 colon it was > 100 µM; with SNB-75 CNS it was 3.73 µM; in the test with MDA-MB-231 breast it was 2.8 µM; in the test on SNB-19 CNS it was 3.05 µM. Further, the TGI in the test on OVCAR-8 ovarian was 2.78 µM; with OVCAR-5 ovarian, > 100 µM; with NCI-H226 lung, 4.15 µM; in the test on OVCAR-3 ovarian, 2.45 µM.

`O=C1CC(c2cccc(F)c2)Nc2cc3c(cc21)OCO3` (stereo not given): the GI50 in the test on SW-620 colon is < 0.01 µM; in the test on HCT-15 colon, < 0.01 µM; with MDA-MB-231 breast it was 0.04 µM; with OVCAR-5 ovarian, 13.4 µM; in the test with NCI-H226 lung, < 0.01 µM; in the test with OVCAR-3 ovarian, < 0.01 µM. The total growth inhibition concentration (TGI) was > 100 µM in the test on SW-620 colon; > 100 µM in the test with HCT-15 colon; > 100 µM in the test on MDA-MB-231 breast; 3.12 µM with SNB-19 CNS; 1.52 µM with OVCAR-8 ovarian; > 100 µM in the test with OVCAR-5 ovarian. Moreover, in the test on OVCAR-3 ovarian, the TGI is > 100 µM.

On to `COc1cc(Nc2ncc(-c3ccccc3)o2)cc(OC)c1`, for which the GI50 in the test with SR leukemia is > 17.7 µM; in the test on SW-620 colon, > 25 µM; in the test with HCT-15 colon it was 18.6 µM; in the test on SNB-75 CNS, 3.19 µM; in the test with MDA-MB-231 breast it was > 25 µM; in the test on SNB-19 CNS it was > 25 µM. Further, the GI50 in the test with OVCAR-8 ovarian is > 25 µM; in the test on OVCAR-5 ovarian, > 25 µM; with NCI-H226 lung, > 12.5 µM; in the test with OVCAR-3 ovarian, > 25 µM. Moreover, the TGI in the test with SR leukemia, with SW-620 colon, in the test with HCT-15 colon, in the test with SNB-75 CNS, with MDA-MB-231 breast and with SNB-19 CNS was > 25 µM in each case. Besides, the TGI in the test with OVCAR-8 ovarian, in the test with OVCAR-5 ovarian, in the test with NCI-H226 lung and with OVCAR-3 ovarian was > 25 µM in each case.

For the molecule `OC(COC(c1ccccc1)(c1ccccc1)c1ccccc1)C(O)CC1SCCS1` (stereo not given), the TGI in the test with SR leukemia is 0.953 µM; in the test on SW-620 colon, > 100 µM; in the test with HCT-15 colon, 73.9 µM; in the test with MDA-MB-231 breast, 35.2 µM; in the test with SNB-19 CNS, 54.9 µM; in the test on OVCAR-8 ovarian, 57.7 µM. For the same molecule, the TGI in the test on OVCAR-5 ovarian was 44 µM; in the test on NCI-H226 lung, 35.3 µM; in the test with OVCAR-3 ovarian, 62.9 µM.

Regarding `COc1ccc(C/C(=C(\C)c2ccc(OCCN3CCCC3)cc2)c2ccc(OCCN3CCCC3)cc2)cc1`, the GI50 in the test on SR leukemia is 0.565 µM; in the test with SW-620 colon, 1.75 µM; in the test on HCT-15 colon it was 1.51 µM; with SNB-75 CNS, 1.59 µM; with MDA-MB-231 breast it was 1.73 µM; in the test on SNB-19 CNS, 2.12 µM. The GI50 with OVCAR-8 ovarian was 2.05 µM; with OVCAR-5 ovarian it was 1.8 µM; in the test on NCI-H226 lung, 2.54 µM; in the test on OVCAR-3 ovarian, 2 µM. The TGI turned out to be 3.47 µM in the test on SR leukemia; 3.65 µM with SW-620 colon; 3.05 µM in the test with HCT-15 colon; 3.22 µM with SNB-75 CNS; 3.37 µM with MDA-MB-231 breast; 4.75 µM in the test on SNB-19 CNS. For the same molecule, the TGI with OVCAR-8 ovarian stood at 4.38 µM; in the test on OVCAR-5 ovarian it was 3.72 µM; in the test on NCI-H226 lung it was 7.64 µM; with OVCAR-3 ovarian, 3.87 µM.

In the case of `COC(=O)c1ccc(CN2C(=O)C(Cl)=C(Nc3cccc(Cl)c3C)C2=O)cc1`, the GI50 is 3.45 µM in the test on SW-620 colon; 28.4 µM in the test with HCT-15 colon; 14.8 µM in the test with SNB-75 CNS; 6.15 µM in the test with MDA-MB-231 breast; > 100 µM with SNB-19 CNS; 37.2 µM with OVCAR-8 ovarian. Further, the GI50 in the test with OVCAR-5 ovarian was 58.1 µM; with NCI-H226 lung, 11 µM; in the test with OVCAR-3 ovarian, 20.2 µM. The TGI in the test with SW-620 colon was 26.4 µM; in the test on HCT-15 colon, 78.9 µM; in the test on SNB-75 CNS it was 95 µM; in the test with MDA-MB-231 breast, 47.3 µM; in the test on SNB-19 CNS it was > 100 µM; in the test on OVCAR-8 ovarian, > 100 µM. The TGI with OVCAR-5 ovarian was > 100 µM; in the test with NCI-H226 lung it was > 100 µM; in the test on OVCAR-3 ovarian, 70.3 µM.

Regarding `CCCCCCCCCCCCCCCCCCn1cc[n+](C)c1`, the GI50 was 1.24 µM with SR leukemia; 0.624 µM with SW-620 colon; 0.689 µM and 0.888 µM with HCT-15 colon; 1.08 µM in the test with MDA-MB-231 breast; 1.22 µM and 1.18 µM in the test with SNB-19 CNS; 0.605 µM with OVCAR-5 ovarian. Moreover, the GI50 in the test on OVCAR-3 ovarian is 0.366 µM. In addition, the TGI was > 100 µM in the test on SR leukemia; 1.96 µM in the test on SW-620 colon; 2 µM and 2.34 µM in the test on HCT-15 colon; 2.52 µM in the test with MDA-MB-231 breast; 3.57 µM and 2.42 µM with SNB-19 CNS; 2 µM in the test on OVCAR-5 ovarian. In addition, in the test on OVCAR-3 ovarian, the TGI stood at 1.27 µM.

For `COc1ccc(-c2nc(-c3ccc(C)cc3)cn3ccnc23)cc1`, the GI50 with SR leukemia is 0.3 µM; in the test on SW-620 colon it was 2.8 µM; in the test on HCT-15 colon it was 2.56 µM; with MDA-MB-231 breast it was 4.24 µM; in the test on SNB-19 CNS, 13.8 µM; with OVCAR-8 ovarian, > 5 µM. In addition, the GI50 with OVCAR-5 ovarian is 28.9 µM; with OVCAR-3 ovarian it was 4.46 µM. In addition, the TGI in the test with SR leukemia was > 50 µM; in the test on SW-620 colon, > 50 µM; in the test with HCT-15 colon, > 50 µM; with MDA-MB-231 breast it was 38.8 µM; in the test on SNB-19 CNS, > 50 µM; with OVCAR-8 ovarian, > 5 µM. Besides, the TGI in the test with OVCAR-5 ovarian and in the test with OVCAR-3 ovarian was > 50 µM in each case.

The values are drawn from PubChem BioAssay (NCI).
